# Assay results: patent publication US8802664B2 (Bioproject, priority 2010, dated 2014)
# Molecular target: T1, human H4 receptor (Homo sapiens, UniProt Q9H3N8)
# T1 construct: expressed in transfected cells
# Test: [3H]Histamine binding on membranes of CHO cells stably expressing human H4 receptor
# In short: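 First, thawed CHO membranes carrying human H4 were diluted to 20 μg protein per well in pH 7.4 Tris/EDTA buffer. Next, incubation was ended by rapid filtration through PEI-treated GF/B filters followed by cold rinses. Finally, retained radioactivity was counted; 10 μM JNJ 7777120 marked nonspecific binding.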
row,Ki or IC50 activity class [nM],SMILES
1,< 30,CN1CCC(OC(c2cccc(SCCCCN)c2)c2nc3cc(F)c(F)cc3[nH]2)CC1 (stereo not shown) [Example 495]
2,< 1000,"CN1CCC(OC(c2cccc(OCCN3CCN(C(=O)OC(C)(C)C)CC3)c2)c2nc3ccccc3[nH]2)CC1 (stereo not shown) [Example 369, 4-(2-{3-[(1H-benzimidazol-2-yl)(1-methylpiperidin-4-yloxy)methyl]phenoxy}ethyl)piperazine-1-carboxylic acid tert-butyl ester]"
3,< 30,COc1ccc(F)c(C(OC2CCN(C)CC2)c2nc3ccccc3[nH]2)c1 (stereo not shown) [Example 486]
4,< 30,"CCSc1cccc(C(OC2CCN(C)CC2)c2nc3ccccc3[nH]2)c1 (stereo not shown) [Example 153, 2-[(3-ethylsulfanylphenyl)(1-methylpiperidin-4-yloxy)methyl]-1H-benzimidazole]"
5,< 30,"CN1CCC(OC(c2cccc(OCCCF)c2)c2nc3ccccc3s2)CC1 (stereo not shown) [Example 176, 2-[[3-(3-fluoropropoxy)phenyl](1-methylpiperidin-4-yloxy)methyl]benzothiazole]"
6,< 1000,"CN1CCC(OC(c2cccc(C#CC3CCNCC3)c2)c2nc3ccccc3[nH]2)CC1 (stereo not shown) [Example 376, 2-[(1-methylpiperidin-4-yloxy)(3-piperidin-4-ylethynyl-phenyl)methyl]-1H-benzimidazole]"
7,< 30,CN1CCC(OC(c2cccc(OCCF)c2)c2nc3ccccc3[nH]2)CC1 (stereo not shown) [Example 476]
8,< 1000,"CN1CCC(OC(c2cccc(OCCCCCNCCCCN)c2)c2nc3ccccc3[nH]2)CC1 (stereo not shown) [Example 419, N1-(5-{3-[(1H-benzimidazol-2-yl)(1-methylpiperidin-4-yloxy)methyl]phenoxy}pentyl)butane-1,4-diamine]"
9,< 30,"CCOc1cccc(C(OC2CCN(C)CC2)c2nc3ccccc3s2)c1 (stereo not shown) [Example 47, 2-[(3-ethoxyphenyl)(1-methylpiperidin-4-yloxy)methyl]benzothiazole]"
10,< 30,"COc1cccc(COc2cccc(C(NC3CCN(C)CC3)c3nc4ccccc4[nH]3)c2)c1 (stereo not shown) [Example 125, {(1H-benzimidazol-2-yl)[3-(3-methoxybenzyloxy)phenyl]methyl}(1-methylpiperidin-4-yl)amine]"
11,< 300,"CN1CCC(OC(c2ccc3c(c2)OCO3)c2nc3ccccc3s2)CC1 (stereo not shown) [Example 20, 2-[benzo[1,3]dioxol-5-yl(1-methylpiperidin-4-yloxy)methyl]benzothiazole]"
12,< 300,"CN1CCC(OC(c2cccc(CCCCCN)c2)c2nc3ccccc3[nH]2)CC1 (stereo not shown) [Example 312, 5-{3-[(1H-benzimidazol-2-yl)(1-methylpiperidin-4-yloxy)methyl]phenyl}pentylamine]"
13,< 30,"CN1CCC(OC(c2cccc(CCCCCCN)c2)c2nc3ccccc3s2)CC1 (stereo not shown) [Example 325, 6-{3-[benzothiazol-2-yl(1-methylpiperidin-4-yloxy)methyl]phenyl}hexylamine]"
14,< 30,"CN1CCC(OC(c2cccc(SCCCCN)c2)c2nc3cc(F)ccc3[nH]2)CC1 (stereo not shown) [Example 440, 4-{3-[(5-fluoro-1H-benzimidazol-2-yl)(1-methylpiperidin-4-yloxy)methyl]phenylsulfanyl}butylamine]"
15,< 30,"CN1CCC(OC(c2cccc(C#CCO)c2)c2nc3ccccc3s2)CC1 (stereo not shown) [Example 227, 3-{3-[benzothiazol-2-yl(1-methylpiperidin-4-yloxy)methyl]phenyl}prop-2-yn-1-ol]"
16,< 300,"CN1CCC(OC(c2cccc(-c3ccccc3)c2)c2nc3ccccc3[nH]2)CC1 (stereo not shown) [Example 81, 2-[biphenyl-3-yl(1-methylpiperidin-4-yloxy)methyl]-1H-benzimidazole]"
17,< 30,"CN1CCC(OC(c2cccc(C#CCCNC(=N)N)c2)c2nc3ccccc3s2)CC1 (stereo not shown) [Example 372, N-(4-{3-[benzothiazol-2-yl(1-methylpiperidin-4-yloxy)methyl]phenyl}but-3-ynyl)guanidine]"
18,< 1000,"CN1CCC(OC(c2cccc(N3CCC(O)(C(F)(F)F)C3)c2)c2nc3ccccc3s2)CC1 (stereo not shown) [Example 460, 1-{3-[benzothiazol-2-yl(1-methylpiperidin-4-yloxy)methyl]phenyl}-3-trifluoromethylpyrrolidin-3-ol]"
19,< 300,"CCSc1cc(C(OC2CCN(C)CC2)c2nc3ccccc3[nH]2)ccc1C (stereo not shown) [Example 274, 2-[(3-ethylsulfanyl-4-methylphenyl)(1-methylpiperidin-4-yloxy)methyl]-1H-benzimidazole]"
20,< 300,"CC(=O)c1cccc(-c2cccc(C(OC3CCN(C)CC3)c3nc4ccccc4[nH]3)c2)c1 (stereo not shown) [Example 110, 1-{3′-[(1H-benzimidazol-2-yl)(1-methylpiperidin-4-yloxy)methyl]biphenyl-3-yl}ethanone]"

# Second part, the molecule before the results:
row,SMILES,Ki or IC50 activity class [nM]
1,"CN1CCC(OC(c2cccc(SCCCCCO)c2)c2nc3ccccc3[nH]2)CC1 (stereo not shown) [Example 445, 5-{3-[(1H-benzimidazol-2-yl)(1-methylpiperidin-4-yloxy)methyl]phenylsulfanyl}pentan-1-ol]",< 300
2,"CN1CCC(OC(c2cccc(-c3ccccc3)c2)c2nc3ccccc3s2)CC1 (stereo not shown) [Example 53, 2-[biphenyl-3-yl(1-methylpiperidin-4-yloxy)methyl]benzothiazole]",< 300
3,CN1CCC(OC(c2cc(C(F)(F)F)cc(C(F)(F)F)c2)c2nc3ccccc3[nH]2)CC1 (stereo not shown) [Example 547],< 1000
4,"CN1CCC(OC(c2nc3ccccc3s2)c2ccc(F)cc2F)CC1 (stereo not shown) [Example 12, 2-[(2,4-difluorophenyl)(1-methyl-piperidin-4-yloxy)methyl]-benzothiazole]",< 300
5,"CN1CCC(OC(c2cccc(CCCN)c2)c2nc3ccccc3[nH]2)CC1 (stereo not shown) [Example 303, 3-{3-[(1H-benzimidazol-2-yl)(1-methylpiperidin-4-yloxy)methyl]phenyl}propylamine]",< 300
6,"CN1CCC(OC(c2cccc(SCc3ccco3)c2)c2nc3ccccc3[nH]2)CC1 (stereo not shown) [Example 173, 2-[[3-(furan-2-ylmethylsulfanyl)phenyl](1-methylpiperidin-4-yloxy)methyl]-1H-benzimidazole]",< 300
7,"CN1CCC(OC(c2ccsc2)c2nc3ccccc3s2)CC1 (stereo not shown) [Example 16, 2-[(1-methylpiperidin-4-yloxy)thiophen-3-ylmethyl]benzothiazole]",< 30
8,"CN1CCC(OC(c2cccc(CCCCCCN)c2)c2nc3ccccc3[nH]2)CC1 (stereo not shown) [Example 344, 6-{3-[(1H-benzimidazol-2-yl)(1-methylpiperidin-4-yloxy)methyl]phenyl}hexylamine]",< 300
9,"CN1CCC(OC(c2cccc(SCCN)c2)c2nc3ccccc3s2)CC1 (stereo not shown) [Example 269, 2-{3-[benzothiazol-2-yl(1-methylpiperidin-4-yloxy)methyl]phenylsulfanyl}ethylamine]",< 30
10,"CN1CCC(OC(c2cccc(Cl)c2)c2nc3ccccc3[nH]2)CC1 (stereo not shown) [Example 225, 2-[(3-chlorophenyl)(1-methylpiperidin-4-yloxy)methyl]-1H-benzimidazole]",< 300
11,"CN1CCC(OC(c2cccc(CCCCCCNC(=N)N)c2)c2nc3ccccc3[nH]2)CC1 (stereo not shown) [Example 355, N-(6-{3-[(1H-benzimidazol-2-yl)(1-methylpiperidin-4-yloxy)methyl]phenyl}hexyl)guanidine]",< 300
12,"CN1CCC(OC(c2cccc(OS(=O)(=O)C(F)(F)F)c2)c2nc3ccccc3s2)CC1 (stereo not shown) [Example 71, trifluoromethanesulfonic acid 3-[benzothiazol-2-yl(1-methylpiperidin-4-yloxy)methyl]phenyl ester]",< 300
13,"CN1CCC(OC(c2cccc(OCc3cccc([N+](=O)[O-])c3)c2)c2nc3ccccc3s2)CC1 (stereo not shown) [Example 196, 2-{(1-methylpiperidin-4-yloxy)[3-(3-nitro-benzyloxy)phenyl]methyl}benzothiazole]",< 30
14,"CN1CCC(OC(c2nc3ccccc3[nH]2)c2ccccc2O)CC1 (single isomer, unassigned) [Example 627, 2-[(1H-benzimidazol-2-yl)(1-methylpiperidin-4-yloxy)methyl]phenol]",< 30
15,CN1CCC(COC(c2cccc(C#CCCCN)c2)c2nc3cc(F)ccc3[nH]2)C1 (stereo not shown) [Example 462],< 300
16,"CN1CCC(OC(c2cccc(C3=CCNCC3)c2)c2nc3ccccc3[nH]2)CC1 (stereo not shown) [Example 338, 2-{(1-methylpiperidin-4-yloxy)[3-(1,2,3,6-tetrahydro-pyridin-4-yl)phenyl]methyl}-1H-benzimidazole]",< 300
17,CN1CCC(OC(c2cccc(SCCCF)c2)c2nc3ccccc3[nH]2)CC1 (stereo not shown) [Example 508],< 30
18,"CN1CCC(OC(c2cccc(-c3ccccc3F)c2)c2nc3ccccc3s2)CC1 (stereo not shown) [Example 137, 2-[(2′-fluorobiphenyl-3-yl)(1-methylpiperidin-4-yloxy)methyl]benzothiazole]",< 300
19,"CN1CCC(OC(c2cccc(C=CCCCO)c2)c2nc3ccccc3[nH]2)CC1 (stereo not shown) [Example 389, 5-{3-[(1H-benzimidazol-2-yl)(1-methylpiperidin-4-yloxy)methyl]phenyl}pent-4-en-1-ol]",< 300
20,"CN1CCC(OC(c2cccc(SCCCCCN)c2)c2nc3ccccc3s2)CC1 (stereo not shown) [Example 305, 5-{3-[benzothiazol-2-yl(1-methylpiperidin-4-yloxy)methyl]phenylsulfanyl}pentylamine]",< 30
21,"CN1CCC(NC(c2cc3ccccc3o2)c2nc3ccccc3s2)CC1 (stereo not shown) [Example 37, [(benzofuran-2-yl)(benzothiazol-2-yl)methyl](1-methylpiperidin-4-yl)amine]",< 1000
22,"CN1CCC(OC(c2cccc(C3CCN(C(=N)N)CC3)c2)c2nc3ccccc3[nH]2)CC1 (stereo not shown) [Example 394, 4-{3-[(1H-benzimidazol-2-yl)(1-methylpiperidin-4-yloxy)methyl]phenyl}piperidine-1-carboxamidine]",< 1000
23,"CN1CCC(OC(c2cccc(I)c2)c2nc3ccccc3n2C)CC1 (stereo not shown) [Example 472, 2-[(3-iodophenyl)(1-methylpiperidin-4-yloxy)methyl]-1-methyl-1H-benzimidazole]",< 300
